Laboratory results as given in US9498483B2, “2,3,5-trisubstituted thiophene compounds and uses thereof” (priority 2010, dated 2016).

How the values were obtained:
[1] = system: HCV replicon I389luc-ubi-neo/NS3-3′/ET in ET (Huh-lucubineo-ET) cells; test: Replicon assay (Biological Example 2), luciferase readout; type: cell-based; conditions: Hepatitis C virus
Outline: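 EC50 values come from Hill fits of % inhibition of replicon-driven firefly luciferase, relative to no-compound wells. Compounds were serially diluted (10 points, 3-fold, 0.1 nM–50 μM final, 0.5% DMSO) onto ET replicon cells and read after 48 h.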

[2] = target: T1, HCV polymerase (Hepatitis C virus genotype 1b, UniProt Q9WMX2); test: Polymerase assay of Biological Example 1 (IC50 values of Table 3); type: biochemical; conditions: IC50 values of Table 3, polymerase assay of Biological Example 1; read-out: NS5B-enzyme3
T1 construct: (His)6 (C); made in house; host or cells: XL-1 cells (E. coli, by own knowledge)

[3] = ET cells, luciferase activity 48 hours after compound

SMILES | IC50 ([1]; between 100 nM and 5.0 uM) [µM] | IC50 [2] [µM] | IC50 [1, 3] [µM]
Cn1ccc2cc(S(=O)(=O)N3CC(=O)N(c4cc(-c5ccccc5)sc4C(=O)O)C(C4CCCCC4)C3)ccc21 (stereo not drawn) [Compound 61, 3-[2-Cyclohexyl-4-(1-methyl-1H-indole-5-sulfonyl)-6-oxo-piperazin-1-yl]-5-phenyl-thiophene-2-carboxylic acid] | 0.1 to 5 | 0.003 | –
Cn1ccc(S(=O)(=O)N2CC(=O)N(c3cc(-c4ccccc4)sc3C(=O)O)C(C3CCCCC3)C2)n1 (stereo not drawn) [Compound 62, 3-[2-Cyclohexyl-4-(1-methyl-1H-pyrazole-3-sulfonyl)-6-oxo-piperazin-1-yl]-5-phenyl-thiophene-2-carboxylic acid] | 0.1 to 5 | 0.011 | –
Cc1nccc(-c2cccc(S(=O)(=O)N3CC(=O)N(c4cc(-c5ccccc5)sc4C(=O)O)C(C4CCCCC4)C3)c2)n1 (stereo not drawn) [Compound 63, 3-{2-Cyclohexyl-4-[3-(2-methyl-pyrimidin-4-yl)-benzenesulfonyl]-6-oxo-piperazin-1-yl}-5-phenyl-thiophene-2-carboxylic acid] | 0.1 to 5 | 0.042 | –
Cn1ccc2c(S(=O)(=O)N3CC(=O)N(c4cc(-c5ccccc5)sc4C(=O)O)C(C4CCCCC4)C3)cccc21 (stereo not drawn) [Compound 64, 3-[2-Cyclohexyl-4-(1-methyl-1H-indole-4-sulfonyl)-6-oxo-piperazin-1-yl]-5-phenyl-thiophene-2-carboxylic acid] | 0.1 to 5 | 0.031 | –
O=C(O)c1sc(-c2ccccc2)cc1N1C(=O)CN(S(=O)(=O)c2cccc(-c3ccccc3)c2)CC1C1CCCCC1 (stereo not drawn) [Compound 65, 3-[4-(Biphenyl-3-sulfonyl)-2-cyclohexyl-6-oxo-piperazin-1-yl]-5-phenyl-thiophene-2-carboxylic acid] | 0.1 to 5 | 0.045 | –
O=C(O)c1sc(-c2ccccc2)cc1N1C(=O)CN(S(=O)(=O)c2ccc(F)c(C(F)(F)F)c2)CC1C1CCCCC1 (stereo not drawn) [Compound 66, 3-[2-Cyclohexyl-4-(4-fluoro-3-trifluoromethyl-benzenesulfonyl)-6-oxo-piperazin-1-yl]-5-phenyl-thiophene-2-carboxylic acid] | 0.1 to 5 | 0.049 | –
O=C(O)c1sc(-c2ccccc2F)cc1N1C(=O)CCCC1C1CCCCC1 (stereo not drawn) [Compound 67, 3-(2-Cyclohexyl-6-oxo-piperidin-1-yl)-5-(2-fluoro-phenyl)-thiophene-2-carboxylic acid] | 0.1 to 5 | 0.183 | –
CCN(CC)c1ccc(S(=O)(=O)N2CC(=O)N(c3cc(-c4ccccc4)sc3C(=O)O)C(C3CCCCC3)C2)cn1 (stereo not drawn) [Compound 69, 3-[2-Cyclohexyl-4-(6-diethylamino-pyridine-3-sulfonyl)-6-oxo-piperazin-1-yl]-5-phenyl-thiophene-2-carboxylic acid] | – | 0.002 | ≤ 0.1
O=C(O)c1sc(-c2ccc(F)cc2)cc1N1C(=O)CCCC1C1CCCCC1 (stereo not drawn) [Compound 70, 3-(2-Cyclohexyl-6-oxo-piperidin-1-yl)-5-(4-fluoro-phenyl)-thiophene-2-carboxylic acid] | 0.1 to 5 | 0.067 | –
Cc1ccc(-c2cc(N3C(=O)CCCC3C3CCCCC3)c(C(=O)O)s2)cc1 (stereo not drawn) [Compound 71, 3-(2-Cyclohexyl-6-oxo-piperidin-1-yl)-5-p-tolyl-thiophene-2-carboxylic acid] | 0.1 to 5 | 0.052 | –
CCc1ccc(-c2cc(N3C(=O)CCCC3C3CCCCC3)c(C(=O)O)s2)cc1 (stereo not drawn) [Compound 72, 3-(2-Cyclohexyl-6-oxo-piperidin-1-yl)-5-(4-ethyl-phenyl)-thiophene-2-carboxylic acid] | 0.1 to 5 | 0.064 | –
O=C(O)c1sc(-c2ccc(Cl)cc2)cc1N1C(=O)CCCC1C1CCCCC1 (stereo not drawn) [Compound 73, 5-(4-Chloro-phenyl)-3-(2-cyclohexyl-6-oxo-piperidin-1-yl)-thiophene-2-carboxylic acid] | 0.1 to 5 | 0.021 | –
O=C(O)c1sc(-c2ccccc2)cc1N1C(=O)CN(S(=O)(=O)c2ccc(N3CCC3)nc2)CC1C1CCCCC1 (stereo not drawn) [Compound 74, 3-[4-(6-Azetidin-1-yl-pyridine-3-sulfonyl)-2-cyclohexyl-6-oxo-piperazin-1-yl]-5-phenyl-thiophene-2-carboxylic acid] | – | 0.012 | ≤ 0.1
O=C(O)c1sc(-c2ccccc2)cc1N1C(=O)CN(S(=O)(=O)c2ccc(NC3CCCCC3)nc2)CC1C1CCCCC1 (stereo not drawn) [Compound 75, 3-[2-Cyclohexyl-4-(6-cyclohexylamino-pyridine-3-sulfonyl)-6-oxo-piperazin-1-yl]-5-phenyl-thiophene-2-carboxylic acid] | – | 0.008 | ≤ 0.1
O=C(O)c1sc(-c2ccccc2)cc1N1C(=O)CN(S(=O)(=O)c2ccc(N3CCCC3)nc2)CC1C1CCCCC1 (stereo not drawn) [Compound 76, 3-[2-Cyclohexyl-6-oxo-4-(6-pyrrolidin-1-yl-pyridine-3-sulfonyl)-piperazin-1-yl]-5-phenyl-thiophene-2-carboxylic acid] | – | 0.004 | ≤ 0.1
CCCN(CCC)c1ccc(S(=O)(=O)N2CC(=O)N(c3cc(-c4ccccc4)sc3C(=O)O)C(C3CCCCC3)C2)cn1 (stereo not drawn) [Compound 77, 3-[2-Cyclohexyl-4-(6-dipropylamino-pyridine-3-sulfonyl)-6-oxo-piperazin-1-yl]-5-phenyl-thiophene-2-carboxylic acid] | – | 0.003 | ≤ 0.1
COCCNc1ccc(S(=O)(=O)N2CC(=O)N(c3cc(-c4ccccc4)sc3C(=O)O)C(C3CCCCC3)C2)cn1 (stereo not drawn) [Compound 78, 3-{2-Cyclohexyl-4-[6-(2-methoxy-ethylamino)-pyridine-3-sulfonyl]-6-oxo-piperazin-1-yl}-5-phenyl-thiophene-2-carboxylic acid] | – | 0.005 | ≤ 0.1
O=C(O)c1sc(-c2ccccc2)cc1N1C(=O)CN(S(=O)(=O)c2ccc(N3CCSCC3)nc2)CC1C1CCCCC1 (stereo not drawn) [Compound 79, 3-[2-Cyclohexyl-6-oxo-4-(6-thiomorpholin-4-yl-pyridine-3-sulfonyl)-piperazin-1-yl]-5-phenyl-thiophene-2-carboxylic acid] | – | 0.004 | ≤ 0.1
COCCN(CCOC)c1ccc(S(=O)(=O)N2CC(=O)N(c3cc(-c4ccccc4)sc3C(=O)O)C(C3CCCCC3)C2)cn1 (stereo not drawn) [Compound 80, 3-(4-{6-[Bis-(2-methoxy-ethyl)-amino]-pyridine-3-sulfonyl}-2-cyclohexyl-6-oxo-piperazin-1-yl)-5-phenyl-thiophene-2-carboxylic acid] | – | 0.006 | ≤ 0.1
CN(C)CCNc1ccc(S(=O)(=O)N2CC(=O)N(c3cc(-c4ccccc4)sc3C(=O)O)C(C3CCCCC3)C2)cn1 (stereo not drawn) [Compound 81, 3-{2-Cyclohexyl-4-[6-(2-dimethylamino-ethylamino)-pyridine-3-sulfonyl]-6-oxo-piperazin-1-yl}-5-phenyl-thiophene-2-carboxylic acid] | – | 0.009 | ≤ 0.1
O=C(O)c1sc(-c2ccccc2)cc1N1C(=O)CN(S(=O)(=O)c2ccc(NC3CCCC3)nc2)CC1C1CCCCC1 (stereo not drawn) [Compound 82, 3-[2-Cyclohexyl-4-(6-cyclopentylamino-pyridine-3-sulfonyl)-6-oxo-piperazin-1-yl]-5-phenyl-thiophene-2-carboxylic acid] | – | 0.006 | ≤ 0.1
